Measurements published in ChEMBL document CHEMBL2057208, “Benzoylbenzimidazole-based selective inhibitors targeting Cryptosporidium parvum and Toxoplasma gondii calcium-dependent protein kinase-1” (Bioorg Med Chem Lett, 2012).
Active and inactive are the calls of the source. No cut-off for these calls is given here.

How the values were obtained:
[1] = Inhibition of Cryptosporidium parvum CDPK1
HL-60 = assay: cells; details: Homo sapiens
Toxoplasma gondii = assay: Antiparasitic activity against Toxoplasma gondii up to 1 uM; type: functional, organism-based
[2] = target: T1, Calmodulin-domain protein kinase 1 (Toxoplasma gondii, UniProt Q9BJF5); assay: Inhibition of Toxoplasma gondii CDPK1
T1 sequence (Q9BJF5 whole entry): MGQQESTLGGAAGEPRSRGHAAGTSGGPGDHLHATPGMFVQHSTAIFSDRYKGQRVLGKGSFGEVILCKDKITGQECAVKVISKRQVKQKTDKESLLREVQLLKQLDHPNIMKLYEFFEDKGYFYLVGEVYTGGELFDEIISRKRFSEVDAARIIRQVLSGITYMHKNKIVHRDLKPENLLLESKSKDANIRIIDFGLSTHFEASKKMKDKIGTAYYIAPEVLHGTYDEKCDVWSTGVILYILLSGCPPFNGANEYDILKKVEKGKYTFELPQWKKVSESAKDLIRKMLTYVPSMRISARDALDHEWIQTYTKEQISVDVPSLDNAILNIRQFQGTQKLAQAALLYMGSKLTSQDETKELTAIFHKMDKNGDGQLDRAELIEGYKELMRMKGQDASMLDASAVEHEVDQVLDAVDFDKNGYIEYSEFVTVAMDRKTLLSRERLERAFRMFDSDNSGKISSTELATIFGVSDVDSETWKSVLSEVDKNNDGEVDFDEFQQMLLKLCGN

cells = details: Homo sapiens, CRL8155
Cryptosporidium parvum = assay: Antiparasitic activity against Cryptosporidium parvum up to 1 uM; type: functional, organism-based
[3] = target: Tyrosine-protein kinase ABL1 (Homo sapiens, UniProt P00519); assay: Inhibition of human ABL
Sequence of Tyrosine-protein kinase ABL1 (P00519 whole entry): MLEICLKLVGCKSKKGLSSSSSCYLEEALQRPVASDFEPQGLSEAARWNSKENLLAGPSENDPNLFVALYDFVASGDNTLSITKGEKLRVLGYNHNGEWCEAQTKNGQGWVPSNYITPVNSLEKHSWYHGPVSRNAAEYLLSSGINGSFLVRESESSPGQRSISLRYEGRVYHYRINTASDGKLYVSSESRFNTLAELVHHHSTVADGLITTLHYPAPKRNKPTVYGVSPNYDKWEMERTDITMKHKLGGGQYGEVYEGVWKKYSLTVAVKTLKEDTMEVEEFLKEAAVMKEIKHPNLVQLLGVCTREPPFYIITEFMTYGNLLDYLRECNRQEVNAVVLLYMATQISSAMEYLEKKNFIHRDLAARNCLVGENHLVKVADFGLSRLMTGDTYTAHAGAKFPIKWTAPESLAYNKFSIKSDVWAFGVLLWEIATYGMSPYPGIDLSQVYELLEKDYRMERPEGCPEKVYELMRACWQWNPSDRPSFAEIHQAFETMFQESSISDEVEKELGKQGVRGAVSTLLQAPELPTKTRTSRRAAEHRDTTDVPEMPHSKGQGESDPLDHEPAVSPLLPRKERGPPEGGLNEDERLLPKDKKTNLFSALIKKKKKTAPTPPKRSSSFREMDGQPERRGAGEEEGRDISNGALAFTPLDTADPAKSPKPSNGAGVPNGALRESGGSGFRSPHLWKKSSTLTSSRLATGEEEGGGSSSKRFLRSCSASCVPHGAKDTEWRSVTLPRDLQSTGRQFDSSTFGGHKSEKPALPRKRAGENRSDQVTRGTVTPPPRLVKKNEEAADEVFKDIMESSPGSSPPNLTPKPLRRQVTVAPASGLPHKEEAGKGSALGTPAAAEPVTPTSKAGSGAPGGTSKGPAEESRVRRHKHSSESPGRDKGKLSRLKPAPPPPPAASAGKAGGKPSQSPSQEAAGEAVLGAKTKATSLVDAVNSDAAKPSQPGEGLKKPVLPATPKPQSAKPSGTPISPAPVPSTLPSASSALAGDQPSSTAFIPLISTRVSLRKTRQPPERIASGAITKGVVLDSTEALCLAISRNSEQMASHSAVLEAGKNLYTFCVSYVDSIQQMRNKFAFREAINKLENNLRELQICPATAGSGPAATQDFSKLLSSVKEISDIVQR

[4] = target: Proto-oncogene tyrosine-protein kinase Src (Homo sapiens, UniProt P12931); assay: Inhibition of human SRC
Sequence of Proto-oncogene tyrosine-protein kinase Src (P12931 2-536 limits assumed): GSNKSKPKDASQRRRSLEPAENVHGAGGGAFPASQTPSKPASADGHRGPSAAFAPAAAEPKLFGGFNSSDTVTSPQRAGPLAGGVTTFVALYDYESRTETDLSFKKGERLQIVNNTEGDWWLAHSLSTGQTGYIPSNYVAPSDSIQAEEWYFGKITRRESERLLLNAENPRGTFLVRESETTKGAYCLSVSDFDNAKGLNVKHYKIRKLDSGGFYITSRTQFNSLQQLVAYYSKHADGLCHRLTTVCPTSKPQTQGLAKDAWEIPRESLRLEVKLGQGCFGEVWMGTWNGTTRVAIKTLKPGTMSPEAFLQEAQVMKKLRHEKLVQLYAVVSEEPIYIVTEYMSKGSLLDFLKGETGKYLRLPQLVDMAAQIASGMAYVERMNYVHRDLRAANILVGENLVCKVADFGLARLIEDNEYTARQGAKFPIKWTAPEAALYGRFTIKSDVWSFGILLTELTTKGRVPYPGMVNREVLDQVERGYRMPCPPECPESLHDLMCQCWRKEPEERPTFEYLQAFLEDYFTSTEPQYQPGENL

IC50 [1] [µM]	EC50 (HL-60) [µM]	EC50 (cells) [µM]	IC50 [3] [µM]	IC50 [4] [µM]	Compound	Activity (Toxoplasma gondii)	IC50 [2] [µM]	Activity (Cryptosporidium parvum)
0.26	> 30	> 30			CN1CCC(Cn2c(N)nc3ccc(C(=O)c4ccccc4)cc32)CC1	inactive	0.15	inactive
> 3	> 30	> 30			O=C(c1ccccc1)c1ccc2nc(NCCC3CCCNC3)[nH]c2c1 (stereo not given)	inactive	> 3	inactive
0.071	> 30	> 30			CN1CCC[C@H]1CCn1c(N)nc2ccc(C(=O)c3ccccc3)cc21	inactive	0.068	inactive
0.15	> 30	> 30			NCCCCNC(=O)Nc1nc2ccc(C(=O)c3ccccc3)cc2[nH]1	inactive	0.14	inactive
0.036	> 30	> 30	> 10	> 10	CN1CCN(CCn2c(N)nc3ccc(C(=O)c4ccccc4)cc32)CC1	inactive	0.043	inactive
0.072	> 30	> 30			NCCCCCCC(=O)Nc1nc2ccc(C(=O)c3ccccc3)cc2[nH]1	inactive	0.022	inactive
0.92	> 30	> 30			COC(=O)Nc1nc2cc(C(=O)c3ccccc3)ccc2[nH]1 [MEBENDAZOLE]	inactive		inactive
0.3	> 30	> 30			Nc1nc2ccc(C(=O)c3ccccc3)cc2n1CCN1CCCCC1	inactive	0.16	inactive
0.86	> 30	> 30		> 10	NCCC(=O)Nc1nc2ccc(C(=O)c3ccccc3)cc2n1CC1CCNCC1	inactive	0.57	inactive
0.11	> 30	> 30			O=C(CCC1CCNCC1)Nc1nc2ccc(C(=O)c3ccccc3)cc2[nH]1	inactive	0.041	inactive
0.026	> 30	> 30	> 10	> 10	CN1CCC(CCn2c(N)nc3ccc(C(=O)c4ccccc4)cc32)CC1	inactive	0.03	inactive
0.091	> 30	> 30			NCCCC(=O)Nc1nc2ccc(C(=O)c3ccccc3)cc2[nH]1	inactive	0.069	inactive
0.59	> 30	> 30			O=C(NCCCCO)Nc1nc2ccc(C(=O)c3ccccc3)cc2[nH]1	inactive	0.38	inactive
	> 30	> 30	> 10	> 10	Nc1nc2ccc(C(=O)c3ccccc3)cc2n1CC1CCNCC1	inactive		inactive
0.87	> 30	> 30			Nc1nc2ccc(C(=O)c3ccccc3)cc2n1C[C@H]1CCCN1	inactive	1	inactive
0.83	> 30	> 30			Nc1nc2ccc(C(=O)c3ccccc3)cc2n1CCc1ccccn1	inactive	0.26	inactive
> 3	> 30	> 30			O=C(c1ccccc1)c1ccc2nc(NCCO)[nH]c2c1	inactive	> 3	inactive
0.6	> 30	> 30		> 10	Nc1nc2ccc(C(=O)c3ccccc3)cc2[nH]1	inactive	0.23	inactive
0.26	> 30	> 30			Nc1nc2ccc(C(=O)c3ccccc3)cc2n1C[C@@H]1CCCN1	inactive	0.41	inactive
1.41	> 30	> 30			N[C@@H](Cc1ccc(O)cc1)C(=O)Nc1nc2ccc(C(=O)c3ccccc3)cc2[nH]1	inactive	0.52	inactive
> 3					COC(=O)Nc1nc2ccc(C(O)c3ccccc3)cc2[nH]1 (stereo not given)		> 3	
0.18	> 30	> 30			O=C(NCCO)Nc1nc2cc(C(=O)c3ccccc3)ccc2[nH]1	inactive		inactive
0.082	> 30	> 30			O=C(CCCC1CCNCC1)Nc1nc2ccc(C(=O)c3ccccc3)cc2[nH]1	inactive	0.018	inactive
0.13	> 30	> 30			CC(C)(C)Cn1c(N)nc2ccc(C(=O)c3ccccc3)cc21	inactive	0.063	inactive
					O=C(NCCO)Nc1nc2ccc(C(=O)c3ccccc3)cc2[nH]1		0.13	
0.79	> 30	> 30			CN1CCC[C@@H]1Cn1c(N)nc2ccc(C(=O)c3ccccc3)cc21	inactive	0.66	inactive
0.23	> 30	> 30			CC(C)Cn1c(N)nc2ccc(C(=O)c3ccccc3)cc21	inactive	0.067	inactive
0.18	> 30	> 30	0.1		O=C(NCCC1CCNCC1)Nc1nc2ccc(C(=O)c3ccccc3)cc2[nH]1	inactive	0.13	inactive

Compound	IC50 [1] [µM]	EC50 (HL-60) [µM]	EC50 (cells) [µM]	IC50 [3] [µM]	IC50 [4] [µM]	Activity (Toxoplasma gondii)	IC50 [2] [µM]	Activity (Cryptosporidium parvum)
Nc1nc2ccc(C(=O)c3ccccc3)cc2n1CCN1CCOCC1	0.39	> 30	> 30			inactive	0.22	inactive
O=C(CC1CCNCC1)Nc1nc2ccc(C(=O)c3ccccc3)cc2[nH]1	0.12	> 30	> 30			inactive	0.06	inactive
Nc1nc2ccc(C(=O)c3ccccc3)cc2n1CC[C@@H]1CCCN1	0.03	> 30	> 30	> 10	> 10	inactive	0.029	inactive
N[C@@H](Cc1c[nH]cn1)C(=O)Nc1nc2ccc(C(=O)c3ccccc3)cc2[nH]1	0.32	> 30	> 30			inactive	0.14	inactive
NCCC(=O)Nc1nc2ccc(C(=O)c3ccccc3)cc2[nH]1	0.13	> 30	> 30			inactive	0.18	inactive
Nc1nc2ccc(C(=O)c3ccccc3)cc2n1CC[C@H]1CCCN1	0.095	> 30	> 30			inactive	0.065	inactive
Nc1nc2ccc(C(=O)c3ccccc3)cc2n1C[C@H]1CCNC1	0.12	> 30	> 30			inactive	0.12	inactive
O=C(c1ccccc1)c1ccc2nc(NC(=O)[C@@H]3CCCN3)[nH]c2c1	0.13	> 30	> 30			inactive	0.16	inactive
O=C(NCCC1CCCNC1)Nc1nc2ccc(C(=O)c3ccccc3)cc2[nH]1 (stereo not given)	0.16	> 30	> 30			inactive	0.12	inactive
COC(=O)Nc1nc2ccc(C(=O)c3ccccc3)cc2[nH]1 [MEBENDAZOLE]				5	> 10		0.67	
Nc1nc2ccc(C(=O)c3ccccc3)cc2n1CCc1ccc(F)cc1	0.95	> 30	> 30			inactive	0.19	inactive
CN1CCN(CCCn2c(N)nc3ccc(C(=O)c4ccccc4)cc32)CC1	0.17	> 30	> 30			inactive	0.18	inactive
